Tests used:
Assay in all cases: Test B preemergence/postemergence greenhouse plant response rating 0 to 10
Settings in all cases: 0 to 10 scale
[1] = tested on: wheat; format: in vivo, Triticum aestivum
Summary of the method: (§1)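 Planted seeds are treated preemergence with compound dissolved in a non-phytotoxic solvent, while postemergence applications go onto plants of two to eighteen cm. Plants stay in the greenhouse twelve to sixteen days and are then rated visually relative to controls.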

[2] = tested on: soybean; format: in vivo, Glycine max
Summary of the method: as §1

[3] = tested on: bedstraw; format: in vivo, Galium aparine
Summary of the method: as §1

[4] = tested on: cheatgrass; format: in vivo, Bromus secalinus
Summary of the method: as §1

[5] = tested on: crabgrass; format: in vivo, Digitaria spp.
Summary of the method: as §1

[6] = tested on: sorghum; format: in vivo, Sorghum bicolor
Summary of the method: as §1

[7] = tested on: blackgrass; format: in vivo, Alopecurus myosuroides
Summary of the method: as §1

[8] = tested on: barnyardgrass; format: in vivo, Echinochloa crus-galli
Summary of the method: as §1

[9] = tested on: rape; format: in vivo, Brassica napus
Summary of the method: as §1

[10] = tested on: wild oat; format: in vivo, Avena fatua
Summary of the method: as §1

[11] = tested on: wild buckwheat; format: in vivo, Polygonum convolvulus
Summary of the method: as §1

[12] = tested on: barley; format: in vivo, Hordeum vulgare
Summary of the method: as §1

[13] = tested on: rice; format: in vivo, Oryza sativa
Summary of the method: as §1

[14] = tested on: chickweed; format: in vivo, Stellaria media
Summary of the method: as §1

[15] = tested on: cocklebur; format: in vivo, Xanthium pensylvanicum
Summary of the method: as §1

[16] = tested on: corn; format: in vivo, Zea mays
Summary of the method: as §1

[17] = tested on: lambsquarters; format: in vivo, Chenopodium album
Summary of the method: as §1

[18] = tested on: velvetleaf; format: in vivo, Abutilon theophrasti
Summary of the method: as §1

[19] = tested on: morningglory; format: in vivo, Ipomoea hederacea
Summary of the method: as §1

[20] = tested on: purple nutsedge; format: in vivo, Cyperus rotundus
Summary of the method: as §1

[21] = tested on: giant foxtail; format: in vivo, Setaria faberii
Summary of the method: as §1

[22] = tested on: sugar beet; format: in vivo, Beta vulgaris
Summary of the method: as §1

[23] = tested on: cotton; format: in vivo, Gossypium hirsutum
Summary of the method: as §1

COCCN1C(=O)COc2cc(F)c(-c3nn4c(c3Cl)CCCC4)cc21 [Compound 53]
Plant response rating, Wheat ([1]; POSTEMERGENCE, Rate 10 g/ha): 7
Plant response rating, Wheat ([1]; POSTEMERGENCE, Rate 50 g/ha): 7
Plant response rating, Wheat ([1]; PREEMERGENCE, Rate 50 g/ha): 7
Plant response rating, Soybean ([2]; POSTEMERGENCE, Rate 10 g/ha): 9
Plant response rating, Soybean ([2]; POSTEMERGENCE, Rate 50 g/ha): 9
Plant response rating, Soybean ([2]; PREEMERGENCE, Rate 50 g/ha): 0
Plant response rating, Bedstraw ([3]; POSTEMERGENCE, Rate 10 g/ha): 8
Plant response rating, Bedstraw ([3]; POSTEMERGENCE, Rate 50 g/ha): 10
Plant response rating, Bedstraw ([3]; PREEMERGENCE, Rate 10 g/ha): 8
Plant response rating, Bedstraw ([3]; PREEMERGENCE, Rate 50 g/ha): 9
Plant response rating, Cheatgrass ([4]; POSTEMERGENCE, Rate 10 g/ha): 5
Plant response rating, Cheatgrass ([4]; POSTEMERGENCE, Rate 50 g/ha): 4
Plant response rating, Cheatgrass ([4]; PREEMERGENCE, Rate 10 g/ha): 3
Plant response rating, Cheatgrass ([4]; PREEMERGENCE, Rate 50 g/ha): 4
Plant response rating, Crabgrass ([5]; POSTEMERGENCE, Rate 10 g/ha): 3
Plant response rating, Crabgrass ([5]; POSTEMERGENCE, Rate 50 g/ha): 4
Plant response rating, Crabgrass ([5]; PREEMERGENCE, Rate 10 g/ha): 2
Plant response rating, Crabgrass ([5]; PREEMERGENCE, Rate 50 g/ha): 6
Plant response rating, Sorghum ([6]; POSTEMERGENCE, Rate 10 g/ha): 3
Plant response rating, Sorghum ([6]; POSTEMERGENCE, Rate 50 g/ha): 3
Plant response rating, Sorghum ([6]; PREEMERGENCE, Rate 50 g/ha): 6
Plant response rating, Blackgrass ([7]; POSTEMERGENCE, Rate 10 g/ha): 5
Plant response rating, Blackgrass ([7]; POSTEMERGENCE, Rate 50 g/ha): 5
Plant response rating, Blackgrass ([7]; PREEMERGENCE, Rate 10 g/ha): 4
Plant response rating, Blackgrass ([7]; PREEMERGENCE, Rate 50 g/ha): 6
Plant response rating, Barnyardgrass ([8]; POSTEMERGENCE, Rate 10 g/ha): 3
Plant response rating, Barnyardgrass ([8]; POSTEMERGENCE, Rate 50 g/ha): 6
Plant response rating, Barnyardgrass ([8]; PREEMERGENCE, Rate 10 g/ha): 2
Plant response rating, Barnyardgrass ([8]; PREEMERGENCE, Rate 50 g/ha): 2
Plant response rating, Rape ([9]; POSTEMERGENCE, Rate 10 g/ha): 10
Plant response rating, Rape ([9]; POSTEMERGENCE, Rate 50 g/ha): 10
Plant response rating, Rape ([9]; PREEMERGENCE, Rate 50 g/ha): 2
Plant response rating, Wild oat ([10]; POSTEMERGENCE, Rate 10 g/ha): 6
Plant response rating, Wild oat ([10]; POSTEMERGENCE, Rate 50 g/ha): 7
Plant response rating, Wild oat ([10]; PREEMERGENCE, Rate 50 g/ha): 8
Plant response rating, Wild buckwheat ([11]; POSTEMERGENCE, Rate 10 g/ha): 10
Plant response rating, Wild buckwheat ([11]; POSTEMERGENCE, Rate 50 g/ha): 10
Plant response rating, Wild buckwheat ([11]; PREEMERGENCE, Rate 50 g/ha): 9
Plant response rating, Barley ([12]; POSTEMERGENCE, Rate 10 g/ha): 4
Plant response rating, Barley ([12]; POSTEMERGENCE, Rate 50 g/ha): 6
Plant response rating, Barley ([12]; PREEMERGENCE, Rate 10 g/ha): 1
Plant response rating, Barley ([12]; PREEMERGENCE, Rate 50 g/ha): 1
Plant response rating, Rice ([13]; POSTEMERGENCE, Rate 10 g/ha): 4
Plant response rating, Rice ([13]; POSTEMERGENCE, Rate 50 g/ha): 4
Plant response rating, Rice ([13]; PREEMERGENCE, Rate 50 g/ha): 1
Plant response rating, Chickweed ([14]; POSTEMERGENCE, Rate 10 g/ha): 9
Plant response rating, Chickweed ([14]; POSTEMERGENCE, Rate 50 g/ha): 9
Plant response rating, Chickweed ([14]; PREEMERGENCE, Rate 10 g/ha): 10
Plant response rating, Chickweed ([14]; PREEMERGENCE, Rate 50 g/ha): 10
Plant response rating, Cocklebur ([15]; POSTEMERGENCE, Rate 10 g/ha): 9
Plant response rating, Cocklebur ([15]; POSTEMERGENCE, Rate 50 g/ha): 10
Plant response rating, Cocklebur ([15]; PREEMERGENCE, Rate 10 g/ha): 0
Plant response rating, Cocklebur ([15]; PREEMERGENCE, Rate 50 g/ha): 1
Plant response rating, Corn ([16]; POSTEMERGENCE, Rate 10 g/ha): 4
Plant response rating, Corn ([16]; POSTEMERGENCE, Rate 50 g/ha): 4
Plant response rating, Corn ([16]; PREEMERGENCE, Rate 50 g/ha): 0
Plant response rating, Lambsquarter ([17]; POSTEMERGENCE, Rate 10 g/ha): 10
Plant response rating, Lambsquarter ([17]; POSTEMERGENCE, Rate 50 g/ha): 10
Plant response rating, Lambsquarter ([17]; PREEMERGENCE, Rate 50 g/ha): 10
Plant response rating, Velvetleaf ([18]; POSTEMERGENCE, Rate 10 g/ha): 9
Plant response rating, Velvetleaf ([18]; POSTEMERGENCE, Rate 50 g/ha): 10
Plant response rating, Velvetleaf ([18]; PREEMERGENCE, Rate 50 g/ha): 9
Plant response rating, Morningglory ([19]; POSTEMERGENCE, Rate 10 g/ha): 9
Plant response rating, Morningglory ([19]; POSTEMERGENCE, Rate 50 g/ha): 10
Plant response rating, Morningglory ([19]; PREEMERGENCE, Rate 50 g/ha): 10
Plant response rating, Nutsedge ([20]; POSTEMERGENCE, Rate 10 g/ha): 6
Plant response rating, Nutsedge ([20]; POSTEMERGENCE, Rate 50 g/ha): 6
Plant response rating, Nutsedge ([20]; PREEMERGENCE, Rate 50 g/ha): 0
Plant response rating, Giant foxtail ([21]; POSTEMERGENCE, Rate 10 g/ha): 3
Plant response rating, Giant foxtail ([21]; POSTEMERGENCE, Rate 50 g/ha): 6
Plant response rating, Giant foxtail ([21]; PREEMERGENCE, Rate 10 g/ha): 2
Plant response rating, Giant foxtail ([21]; PREEMERGENCE, Rate 50 g/ha): 8
Plant response rating, Sugar beet ([22]; POSTEMERGENCE, Rate 10 g/ha): 10
Plant response rating, Sugar beet ([22]; POSTEMERGENCE, Rate 50 g/ha): 10
Plant response rating, Sugar beet ([22]; PREEMERGENCE, Rate 50 g/ha): 9
Plant response rating, Cotton ([23]; POSTEMERGENCE, Rate 10 g/ha): 10
Plant response rating, Cotton ([23]; POSTEMERGENCE, Rate 50 g/ha): 10
Plant response rating, Cotton ([23]; PREEMERGENCE, Rate 10 g/ha): 0
Plant response rating, Cotton ([23]; PREEMERGENCE, Rate 50 g/ha): 2

From patent US6358885B1, “Substituted phenylheterocyclic herbicides” (Mississippi State University, priority 1992, dated 2002)
